Legend:
Assay type in all cases: in vivo
neuronal cells [1] = assay: Neuroproliferation and neural differentiation (Edu / DCX, hippocampal dentate gyrus), 13-month-old C57 mice
Experimental: (§1) Female 13-month-old mice were divided into 2 groups, PBS group and IGF1-24 group, with 6 mice in each group, and the mice in each group were distinguished by ear tags for subsequent protein injection according to the different body weights of the mice. The mice in each group were injected with PBS and IGF1-24 for 7 consecutive days, and the recombinant protein IGF1-24 was injected at 100 μg/kg. After seven days of protein injection, Edu solution at a concentration of […] was injected intraperitoneally for seven consecutive days, so that the final total dose of each mouse reached 50 mg/kg. […]
Remove frozen sections from −20° C. and restore to room temperature; wash 3 times 10 min/time with PBS; permeabilize sections in 0.5% Triton for 30 min; wash 3 times 10 min/time with PBS; draw circles around the tissue with an immunohistochemistry pen and add 5% BSA dropwise for 1 h; aspirate 5% BSA and incubate at 4° C. with double cortin DCX primary antibody (1:500) dropwise overnight; PBS wash 3 times for 10 min/time; incubate FITC secondary antibody for 1 h; PBS wash 3 times for 10 min/time; incubate Edu dye for 1 h; PBS wash 3 times for 10 min/time; incubate DAPI for 10 min; PBS wash 3 times for 10 min/time; observe fluorescence under fluorescence microscope. […]

cardiomyocytes = assay: Cardiomyocyte proliferation effect assay (Edu), 13-month-old C57 mice; conditions: aged (13-month-old) female mice; IGF1-24 100 μg/kg for 7 days; PBS group 0.5%; FIG. 3
Experimental: as §1

neuronal cells [2] = assay: Neuroproliferation effect (Edu / DCX immunofluorescence, hippocampal dentate gyrus), adult female SD rats; conditions: FIG. 4
Experimental: In certain embodiments, adult female SD rats were divided into five groups: PBS group, IGF1 group, IGF1Ec group, IGF1-24 group, and IGF1+IGF1Ec24 peptide group, with three rats in each group. The rats in each group were distinguished by ear clipping for subsequent protein injection according to the different body weights of the rats.
The rats in each group were injected with PBS, IGF1, IGF1Ec24 peptide, IGF1Ec and IGF1-24 for 7 consecutive days. Recombinant protein IGF1-24 was injected at 100 μg/kg, and the injection of the remaining proteins in each group was converted according to the molar amount of IGF1-24 injection as follows: 90 μg/kg for IGF1, 8.9 μg/kg for IGF1Ec24 peptide, 104 μg/kg for IGF1Ec.
After seven days of protein injection, the intraperitoneal injection of Edu solution at a concentration of 2.5 mg/kg was performed for seven days, so that the final total dose of each rat reached 50 mg/kg. […]
The microscope was selected with a 20× lens to observe the fluorescence staining of the dentate gyrus in the whole hippocampal region; the number of immature neurons and the number of newly proliferating neuronal cells in the dentate gyrus of the hippocampus were recorded.

IGF1-24: 97 amino acids: amino-terminal 70 identical to IGF1, carboxyl-terminal 24 identical to IGFEc24 peptide, joined by three Gly linkers (SEQ ID NO: 4)
immature neuronal cells (neural differentiation assay) (neuronal cells [1]; PBS group 0.68%, FIG. 7): 1.01% | proliferation of neuronal cells (neuronal cells [1]; hippocampal dentate gyrus, PBS group 0.24%, FIG. 5-6): 0.47% | number of Edu-positive cardiomyocytes (cardiomyocytes): 1.5% | proliferation of neuronal cells (neuronal cells [2]): 10%

From patent US20230073755A1, “USE OF IGF1 IN COMBINATION WITH IGFEC24 IN PREPARATION OF MEDICINE FOR PROMOTING TISSUE REPAIR AND REGENERATION” (Chongqing University, priority 2020, published 2023)
